The subject of assay [1] is primary fibroblasts GM00649, GM06225, GM00612, GM00444, GM03672. Put plainly: MMP, ROS and ATP multiplex (ArrayScan). The settings on record: Homo sapiens, Fibroblast; Leigh GM03672; procedure Example 838; 50 μM (table line r25); read-out: Decreased ROS by at least 10%. It counts as cell-based. The protocol: Cell culture and treatments. Primary adherent fibroblasts were cultured in minimum essential medium (MEM) (Gibco, 25030081) supplemented with 2 mM L-Glutamine (Gibco, 25030081), 15% fetal bovine serum (FBS) (Gibco, 26400044) and 1% penicillin/streptomycin (Gibco, 5140122) at 37° C. and 5% CO2. Cells were collected for either passaging or experiment at ˜70-80% confluence. Cells were obtained by trypsinization and seeded at 10000 cells/well in cell culture microplates (Seahorse Bioscience, 101085-004) and allowed to adhere for 16 hours in culture media. After media was refreshed with DMEM (Agilent Seahorse 103575-100) supplemented with 1 mM glucose and 10% FBS (Gibco, 26400044). At the end of the incubation period, the cells were loaded with the relevant dye/antibody for each cell health marker. The assay provided simultaneous measurement of cell health parameters including cell count, ROS formation (DHE), mitochondrial membrane potential (MitoTracker®) and cellular ATP content (CellTiter-Glo®, Promega). The plates were then scanned using an automated fluorescent cellular imager, ArrayScan® (Thermo Scientific Cellomics). Assay conditions were optimized by one skilled in the art.
Primary cells used in this example were obtained from Coriell Institute for Medical Research and consisted of GM00649, MSUD (Maple Syrup Urine Disease) Tyle IA; GM06225, Kearns-Sayre Syndrome; GM00612, MSUD (Maple Syrup Urine Disease) Tyle II GM00444, Pyruvate Carboxylase Deficiency and GM03672, Leigh Syndrome.

For assay [2], the system named is Methylmalonic Acidemia (MMA) primary fibroblasts GM01673. As to the kind of experiment: Mitochondrial respiration, XFe96 Extracellular Flux Analyzer (OCR/ECAR), MMA fibroblasts GM01673. It counts as cell-based. Conditions: Homo sapiens, Fibroblast, assay condition A (10 mM glucose, 2 mM L-glutamine, 1 mM pyruvate, 10% FBS), 50 μM, read-out: Increase in Maximal Respiratory Capacity AUC. The protocol:
The effect of the compounds of the present disclosure on mitochondrial respiration was measured with a XFe96 Extracellular Flux Analyzer (Seahorse Bioscience, Agilent Technologies) and Oxygen consumption Rate (OCR) and Extracellular acidification rate (ECAR) determined.
Cell culture and treatments. Primary adherent fibroblasts were cultured in minimum essential medium (MEM) (Gibco, 25030081) supplemented with 2 mM L-Glutamine (Gibco, 25030081), 15% fetal bovine serum (FBS) (Gibco, 26400044) and 1% penicillin/streptomycin (Gibco, 5140122) at 37° C. and 5% CO2. Cells were collected for either passaging or experiment at ˜70-80% confluence. Cells were obtained by trypsinization and seeded at 20000 cells/well in cell culture microplates (Seahorse Bioscience, 101085-004) and allowed to adhere for 16 hours in culture media.
By profiling different primary cells and/or optimizing their culture media or environmental components one can select cell lines and/or conditions that are appropriate for the biological or disease model. In the present example, 24 hours prior to OCR and ECAR profiling, media was changed to Dulbecco's Modified Eagle Medium (DMEM, Agilent Seahorse 103575-100) with the appropriate supplements for the different primary cells (10 mM glucose, 2 mM L-glutamine, 1 mM pyruvate, 10% FBS; 1 mM glucose, 2 mM L-glutamine, 1 mM pyruvate, 10% FBS; 10 mM glucose, 10% FBS; 5 mM glucose 10% FBS; 1 mM glucose 10% FBS). Cells used in this example were: Propionic Acidemia (PA) (GM00371, GM03590 Coriell Institute for Medical Research, Tsi 6337, Tsi 4626, Tsi 3618 Trans-Hit Bio), Methylmalonic Acidemia (MMA) (GM01673, Coriell Institute for Medical Research, Tsi 5224 Trans-Hit Bio), Branched chain ketoacid dehydrogenase kinase (BCKDK) (GM00612, GM00649 Coriell Institute for Medical Research), Subnormal activation of pyruvate dehydrogenase complex (PDH) (GM01503 Coriell Institute for Medical Research), Very long-chain acyl-CoA dehydrogenase (VLCAD) (GM17475), Leigh Syndrome (LS) (GM03672, GM13411 Coriell Institute for Medical Research), Pyruvate Carboxylase Deficiency (PC) (GM00444 Coriell Institute for Medical Research), Glutaric Acidemia-I (GA) (GM10653), Friedreich's Ataxia (FXN) (GM04078 Coriell Institute for Medical Research, Huntington's disease (HD) (GM21756 Coriell Institute for Medical Research), Ornithine Transcarbamylase Deficiency (OTC) (GM12756 Coriell Institute for Medical Research), Kearns-Sayre Syndrome (KSS) (GM06225 Coriell Institute for Medical Research).
One hour before the assay, the cells were washed with freshly prepared unbuffered serum free-Seahorse XF Assay medium (Seahorse Bioscience, North America, USA, 103575-100) with the same supplements as for the previous 24 hour incubation.
After baseline measurements of OCR, cells were challenged with compounds of the present disclosure at different concentrations (10 to 50 μM) or vehicle (DMSO, 0.1%) and a post-compound baseline was recorded. OCR was measured after sequentially adding to each well 1 μg/ml oligomycin (inhibitor of ATP synthase Sigma-Aldrich, 753531), then maximal OCR was determined with carbonyl cyanide 4-(trifluoromethoxy) phenylhydrazone (FCCP, Sigma-Aldrich, C2920), (uncoupler of oxidative phosphorylation) and 0.5 μM of rotenone (Sigma-Aldrich, R8875) plus antimycin A (Sigma-Aldrich, A8674) (inhibitors of mitochondrial complex I and III) for determination of rotenone-antimycin insensitive respiration together with Hoechst for nuclear staining in situ when normalized to cell counts. After the analysis and nuclear staining, the XFp microplate was transferred to the Cytation 5, and the nuclear images were captured, the individual nuclei were identified and counted by BioTek Gen5 software. Data were expressed as pmol of O2 per minute and normalized by nuclear staining and baselined to pre-compound addition.
Assay conditions were as stated below.
Assay specifics on assay conditions are indicated below when readouts were normalized to cell counts. […]

Where only a bound is given, the exact number is not on record here.

With `CCOC(=O)C(=O)SCCNC(=O)CCNC(=O)[C@H](O)C(C)(C)COP(=O)(O)O` [Compound 61], the inhibition at 50 µM in assay [1] is no less than 10%. Besides, the activation at 50 µM in assay [2] was no less than 10%.

The values are drawn from US20230107216A1, “PANTETHEINE DERIVATIVES AND USES THEREOF” (Comet Therapeutics, Inc., priority 2018, published 2023).
